We go through 25 molecules from patent US20250255298A1, “PENETRATION PROMOTER” (IBIDEN CO., LTD., priority 2023, published 2025).

The subject of the first data set is Rice (variety: Nipponbare) leaves. The data set can be described thus: Test on penetrability in rice (cut leaves soaked in test penetrant, LC-MS/MS of leaf extract). As to conditions: penetration promoter solutions of Examples 1 and 2. On the procedure:
(§1) A solution obtained by adding 40 μL (20 mg) of pine oil (manufactured by ease Inc.) to 2000 mL of each of the penetration promoter solutions 1 to 8 was used as a terpene test penetrant.
(§2) A liquid obtained by dissolving 450 mg of ground nucleic acid particles (manufactured by Kenkououendan Inc.) in 2000 mL of each of the penetration promoter solutions 1 to 8 was used as a nucleic acid test penetrant.
A liquid obtained by dispersing 100 mg of soybean-derived lecithin (manufactured by FUJIFILM Wako Pure Chemical Corporation) in 2000 mL of each of the penetration promoter solutions 1 to 8 was used as a phospholipid test penetrant. • Penetrability test of each organic substance using test penetrant […]
(§3) The analysis sample was analyzed for the amount of terpene using an LC-MS/MS apparatus (LC part: DIONEX Ultimate3000, MS/MS part: Q Exactive Focus: manufactured by Thermo Fisher Scientific K.K.) under the following conditions. […] Quantification was performed from the MS-peak area value of α-pinene contained in pine oil (manufactured by ease Inc.), and the amounts of terpene penetrated into the intralobar tissue by the penetration promoter solutions 1 to 8 (Examples 1 and 2 and Comparative Examples 1 to 6) were compared. […]
`CCCCCCCC/C=C\CCCCCCCC(=O)O` [oleic acid]: the “penetrability with oleic acid as compared with terpene” value was “slightly decreased”.

Tested on in a further data set: not given
Test: not given
Particulars: indicated as common logarithmic value Log Kow or Log P; cited from earlier work.
Take `NCCCC[C@H](N)C(=O)O` [lysine]: the octanol/water partition coefficient is listed as −3.05.
As to `Cc1cn([C@H]2C[C@H](O)[C@@H](COP(=O)(O)O)O2)c(=O)[nH]c1=O` [thymidine monophosphate], the octanol/water partition coefficient is −2.8.
Take `N[C@@H](CCC(=O)O)C(=O)O` [glutamic acid]: the octanol/water partition coefficient is reported as −3.69.
On to `O=C(O)[C@@H]1CCCN1` [proline], for which the octanol/water partition coefficient is recorded as −2.54.
Regarding `CC[C@H](C)[C@H](N)C(=O)O` [isoleucine], the octanol/water partition coefficient is listed as −1.70.
Take `CC(C)C[C@H](N)C(=O)O` [leucine]: the octanol/water partition coefficient is −1.52.
On to `NC(=O)CC[C@H](N)C(=O)O` [glutamine], for which the octanol/water partition coefficient is −3.64.
With `CCCCCCCC/C=C\CCCCCCCC(=O)O` [oleic acid], the octanol/water partition coefficient is 7.73.
As to `N[C@@H](Cc1c[nH]c2ccccc12)C(=O)O` [tryptophan], the octanol/water partition coefficient was −1.05.
For `Nc1nc2c(ncn2[C@@H]2O[C@H](CO)[C@@H](O)[C@H]2O)c(=O)[nH]1` [guanosine], the octanol/water partition coefficient is on record as −1.9.
Regarding `CC(C)[C@H](N)C(=O)O` [valine], the octanol/water partition coefficient is listed as −2.26.
`Nc1ncnc2nc[nH]c12` [adenine]: the octanol/water partition coefficient is −0.1.
For `N[C@@H](Cc1ccccc1)C(=O)O` [phenylalanine], the octanol/water partition coefficient is reported as −1.38.
For the molecule `N[C@@H](CS)C(=O)O` [cysteine], the octanol/water partition coefficient is reported as −2.49.
Turning to `Cc1c[nH]c(=O)[nH]c1=O` [thymine], the octanol/water partition coefficient is recorded as −0.62.
With `Nc1cc[nH]c(=O)n1` [cytosine], the octanol/water partition coefficient is reported as −1.73.
Take `N[C@@H](CO)C(=O)O` [serine]: the octanol/water partition coefficient is −3.07.
For `Cc1cn([C@H]2C[C@H](O)[C@@H](CO)O2)c(=O)[nH]c1=O` [thymidine], the octanol/water partition coefficient is −0.93.
`Nc1ncnc2c1ncn2[C@@H]1O[C@H](CO)[C@@H](O)[C@H]1O` [adenosine]: the octanol/water partition coefficient is recorded as −1.2.
For `O=c1ccn([C@@H]2O[C@H](CO)[C@@H](O)[C@H]2O)c(=O)[nH]1` [uridine], the octanol/water partition coefficient is −1.98.
`Nc1nc2nc[nH]c2c(=O)[nH]1` [guanine]: the octanol/water partition coefficient was −0.91.
Turning to `N[C@@H](Cc1c[nH]cn1)C(=O)O` [histidine], the octanol/water partition coefficient is given as −3.32.
With `C[C@H](N)C(=O)O` [alanine], the octanol/water partition coefficient is on record as −2.85.
With `CSCC[C@H](N)C(=O)O` [methionine], the octanol/water partition coefficient is −1.87.
On to `Nc1ncnc2c1ncn2[C@@H]1O[C@H](COP(=O)(O)O)[C@@H](O)[C@H]1O` [adenosine monophosphate], for which the octanol/water partition coefficient was −3.1.

Another data set concerns soybean (variety: Fukuyutaka) leaves. Put plainly: Test on penetrability in soybean (absorbent cotton with test penetrant on leaf, LC-MS/MS of leaf extract). As to conditions: penetration promoter solutions of Examples 1 and 2. The procedure: as §1, §2
A liquid obtained by dispersing 100 mg of soybean-derived lecithin (manufactured by FUJIFILM Wako Pure Chemical Corporation) in 2000 mL of each of the penetration promoter solutions 1 to 8 was used as a phospholipid test penetrant. • Penetrability test of each organic substance using test penetrant
Four soybean (variety: Fukuyutaka) seeds were seeded, per pot, in a No. 3 pot containing Seeding Soil for Vegetables and Flowers (manufactured by Takii Co., Ltd.). […]
as §3
`CCCCCCCC/C=C\CCCCCCCC(=O)O` [oleic acid]: the “penetrability with oleic acid as compared with terpene” value is recorded as “slightly decreased”.
